Data on 14 compounds can be found in ChEMBL document CHEMBL5236631, “Design, synthesis and biological evaluation of novel 3,4-dihydro-2H-[1,4]oxazino [2,3-f]quinazolin derivatives as EGFR-TKIs” (Bioorg Med Chem Lett, 2023).

Molecules are shown by their SMILES.

In one data set the test system is NCI-H1563. The data set is described as follows: Antiproliferative activity against human NCI-H1563 cells assessed as inhibition of cell growth. It is filed as functional, cell-based.
A further data set concerns NCI-H1975. The data set can be described thus: Antiproliferative activity against human NCI-H1975 cells harboring T790M mutation assessed as inhibition of cell growth. It is filed as functional, cell-based.
Data set [1] addresses Epidermal growth factor receptor (Homo sapiens, UniProt P00533). The data set can be described thus: Inhibition of wild type EGFR (unknown origin) autophosphorylation by Kinase-Glo luminescent assay. (Kinase-Glo measures the ATP left after a reaction by luminescence.)
The nature of data set [2]: Cytotoxicity against human 16HBE14o- cells assessed as inhibition of cell growth by MTT assay. In kind it is toxicity, cell-based. In general terms: Tetrazolium dyes change colour on reduction, which living cells bring about.

Sequence of Epidermal growth factor receptor (P00533 whole entry): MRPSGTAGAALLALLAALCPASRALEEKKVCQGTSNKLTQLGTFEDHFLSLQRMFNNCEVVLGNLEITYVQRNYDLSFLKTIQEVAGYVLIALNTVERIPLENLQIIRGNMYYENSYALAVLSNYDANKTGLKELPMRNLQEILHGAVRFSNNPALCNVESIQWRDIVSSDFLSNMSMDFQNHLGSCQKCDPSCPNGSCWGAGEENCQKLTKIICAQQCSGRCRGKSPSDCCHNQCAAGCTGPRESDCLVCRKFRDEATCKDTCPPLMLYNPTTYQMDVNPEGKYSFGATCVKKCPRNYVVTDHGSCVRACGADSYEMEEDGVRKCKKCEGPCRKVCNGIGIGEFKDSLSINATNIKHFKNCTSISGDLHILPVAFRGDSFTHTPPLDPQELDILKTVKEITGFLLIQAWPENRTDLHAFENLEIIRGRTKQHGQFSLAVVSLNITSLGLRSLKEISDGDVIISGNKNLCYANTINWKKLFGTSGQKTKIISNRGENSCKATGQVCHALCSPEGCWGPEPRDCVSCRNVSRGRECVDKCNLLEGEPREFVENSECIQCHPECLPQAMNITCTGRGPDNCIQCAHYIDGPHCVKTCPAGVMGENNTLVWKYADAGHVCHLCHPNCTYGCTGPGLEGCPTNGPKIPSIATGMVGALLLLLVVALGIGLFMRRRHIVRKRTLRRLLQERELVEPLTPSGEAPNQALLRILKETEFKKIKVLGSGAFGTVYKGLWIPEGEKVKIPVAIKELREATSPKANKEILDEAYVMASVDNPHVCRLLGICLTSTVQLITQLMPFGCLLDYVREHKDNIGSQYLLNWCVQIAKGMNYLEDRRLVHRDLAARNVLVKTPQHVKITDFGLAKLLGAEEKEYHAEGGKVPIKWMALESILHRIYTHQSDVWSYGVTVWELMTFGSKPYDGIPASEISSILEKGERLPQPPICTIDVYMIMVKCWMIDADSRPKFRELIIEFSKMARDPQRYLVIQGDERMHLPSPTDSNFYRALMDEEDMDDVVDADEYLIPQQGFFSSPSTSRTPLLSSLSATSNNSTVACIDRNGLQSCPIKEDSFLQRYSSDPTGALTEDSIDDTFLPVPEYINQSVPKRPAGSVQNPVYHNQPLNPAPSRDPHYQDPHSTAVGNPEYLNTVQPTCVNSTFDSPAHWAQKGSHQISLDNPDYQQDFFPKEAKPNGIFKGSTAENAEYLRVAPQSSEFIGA

`CC(=O)N1CCOc2c1ccc1ncnc(Nc3cccc(C(F)(F)F)c3)c21`: the 50% inhibitory concentration (IC50) with NCI-H1563 was above 40000 nM; in the data set with NCI-H1975 it was above 40000 nM; in data set [1], 534 nM.
Turning to `CCC(=O)N1CCOc2c1ccc1ncnc(Nc3cccc(Br)c3)c21`, in data set [2], the CC50 came out at 1250 nM. Moreover, the values for the IC50 (with NCI-H1563; with NCI-H1975; in data set [1]) were 24800 nM, 3600 nM and 70.3 nM, respectively.
As for `COCCOc1cc2ncnc(Nc3cccc(Cl)c3)c2c2c1OC(COC)CO2` (stereo not given), in data set [1], the midpoint of inhibition, the IC50, lay at 10.3 nM.
Consider `CCC(=O)N1CCOc2c1ccc1ncnc(Nc3ccc(F)c(Cl)c3)c21`, for which the IC50 is above 40000 nM in the data set on NCI-H1563, above 40000 nM in the data set on NCI-H1975 and 70.6 nM in data set [1].
For `CN1CCN(CCC(=O)N2CCOc3c2ccc2ncnc(Nc4cccc(C(F)(F)F)c4)c32)CC1`, the IC50 worked out at 21200 nM with NCI-H1563, 4370 nM with NCI-H1975 and 148 nM in data set [1].
For `FC(F)(F)c1cccc(Nc2ncnc3ccc4c(c23)OCCN4)c1`, in that order: above 40000 nM, 4180 nM and 938 nM.
Turning to `C#Cc1cccc(Nc2ncnc3cc(OCCOC)c(OCCOC)cc23)c1` [ERLOTINIB], in data set [2], the CC50 is 1320 nM. The IC50 in the data set with NCI-H1563 was 8170 nM; in the data set with NCI-H1975, 4670 nM.
As to `CN1CCN(CCC(=O)N2CCOc3c2ccc2ncnc(Nc4cccc(Br)c4)c32)CC1`, the CC50 in data set [2] is 1350 nM. The IC50 worked out at 12500 nM in the data set with NCI-H1563, 4160 nM in the data set with NCI-H1975 and 40.7 nM in data set [1].
In the same order, the values of `CC(=O)N1CCOc2c1ccc1ncnc(Nc3cccc(Br)c3)c21` are 1400 nM, above 40000 nM, above 40000 nM and 45.6 nM.
Regarding `CCC(=O)N1CCOc2c1ccc1ncnc(Nc3cccc(C(F)(F)F)c3)c21`, the IC50 was above 40000 nM with NCI-H1563, above 40000 nM with NCI-H1975 and 838 nM in data set [1].
With `Brc1cccc(Nc2ncnc3ccc4c(c23)OCCN4)c1`, the IC50 in the data set with NCI-H1563 is below 1250 nM; in the data set with NCI-H1975 it was 15600 nM; in data set [1], 120 nM.
With `CC(=O)N1CCOc2c1ccc1ncnc(Nc3ccc(F)c(Cl)c3)c21`, the IC50 in the data set with NCI-H1563 is above 40000 nM; in the data set on NCI-H1975, above 40000 nM; in data set [1] it was 47.2 nM.
Consider `CN1CCN(CCC(=O)N2CCOc3c2ccc2ncnc(Nc4ccc(F)c(Cl)c4)c32)CC1`, for which the CC50 in data set [2] stood at 1240 nM. The values for the IC50 (with NCI-H1563; in the data set on NCI-H1975; in data set [1]) were 10600 nM, 3250 nM and 25.7 nM, respectively.
Turning to `Fc1ccc(Nc2ncnc3ccc4c(c23)OCCN4)cc1Cl`, in data set [2], the CC50 was found to be 130 nM. Moreover, the results for the IC50 (with NCI-H1563; with NCI-H1975; in data set [1]) were below 1250 nM, 1600 nM and 87.3 nM, respectively.

Usually IC50 stands for the midpoint of a concentration-inhibition curve. For orientation: CC50 means the concentration giving 50% cytotoxicity.
